According to US20080045582A1, “ENA-78 Gene Polymorphisms and Protein Concentrations as Diagnostic and Prognostic Tools” (priority 2006, published 2008):

Assays:
[1] = system: ENA-78; test: IL-1beta-stimulated ENA-78 production from HUVECs, cytometric immunofluorescence; assay type: cell-based, human; conditions: for stimulation of ENA-78 production by IL-1beta, times that of basal production: FIG. 15
Protocol: Human umbilical vein endothelial cells (HUVECs) (Clonetics Cell Systems; Cambrex Bio Science Walkersville, Inc., Walkersville, USA) were cultured as previously described. Briefly, HUVECs between passes three and four were seeded at a density of 2.5×10^4 cells per cm^2 and cultured to 80% confluence with endothelial cell growth-supplemented medium (EGM-2-endothelial cell medium-2; Cambrex Bio Science Walkersville, Inc.). Once confluent, media was changed to serum free endothelial basal media (EBM-2-endothelial cell medium-2; Cambrex Bio Science Walkersville, Inc.) for 24 hours prior to treatment, in which EBM-2 media supplemented to a 2% FBS concentration was used. Treatments consisted of atorvastatin calcium (AT; LKT Laboratories Inc., St. […] All were dissolved in molecular grade water. All final DMSO concentrations were less then 0.1%. […] In experiments investigating the impact of AT on IL-1beta-stimulated ENA-78 production, HUVECs were pre-treated with AT followed by IL-1beta stimulation two hours later. […] In a separate set of experiments, cells were cultured with IL-1beta and AT in the presence or absence of mevalonate, FPP, and GGPP to determine whether AT inhibition of ENA-78 production was dependent on HMG-CoA reductase inhibition and subsequent downstream pathways. Cell culture supernates for all experiments were stored at -20° C. until analysis, which was performed within seven days. ENA-78 concentrations were measured and normalized to total protein content in cell culture supernates using cytometric immunofluorescence as previously described. Ribonucleic acid (RNA) was isolated using a commercial kit (RNeasy mini kit, Qiagen Inc., Valencia, USA). Complementary deoxyribonucleic acid (cDNA) conversion was performed by high capacity cDNA reverse transcription (Applied Biosystems, Foster City, USA) per protocol using roughly 2 μg of total RNA. RNA quality was assessed by absorbance (Nanodrop, Nanodrop Technologies, Wilmington, USA). Real-time reverse-transcription PCR (RT-PCR) was done using primer and probe sets for CXCL5 normalized to a housekeeping gene, glyceraldehyde-3-phosphate dehydrogenase (GAPDH; Taqman Gene Expression Assays, Applied Biosystems Inc.). […] PCR for both CXCL5 and GAPDH was performed at the same time using the following conditions: 95° C. for 2 minutes; 35 cycles of 95° C. for 30 seconds, 59° C. for 30 seconds, and 72° C. for 30 seconds; followed by 7 minutes of elongation at 72° C. Statistical differences in normalized protein concentrations and gene expression levels were determined by one way ANOVA and post-hoc Tukey analysis. […] An independent t-test was used to compare treatment differences at the same time points in the dose range analysis. […] Statistical analyses were performed with SPSS software, version 11.5 (SPSS Inc., Chicago, USA).

[2] = system: CXCL5; test: CXCL5 gene expression in HUVECs, real-time RT-PCR normalized to GAPDH; assay type: cell-based, human; conditions: IL-1beta, 24 hours, FIG. 17
Protocol: Human umbilical vein endothelial cells (HUVECs) (Clonetics Cell Systems; Cambrex Bio Science Walkersville, Inc., Walkersville, USA) were cultured as previously described. Briefly, HUVECs between passes three and four were seeded at a density of 2.5×10^4 cells per cm^2 and cultured to 80% confluence with endothelial cell growth-supplemented medium (EGM-2-endothelial cell medium-2; Cambrex Bio Science Walkersville, Inc.). Once confluent, media was changed to serum free endothelial basal media (EBM-2-endothelial cell medium-2; Cambrex Bio Science Walkersville, Inc.) for 24 hours prior to treatment, in which EBM-2 media supplemented to a 2% FBS concentration was used. Treatments consisted of atorvastatin calcium (AT; LKT Laboratories Inc., St. […] All were dissolved in molecular grade water. All final DMSO concentrations were less then 0.1%. […] In experiments investigating the impact of AT on IL-1beta-stimulated ENA-78 production, HUVECs were pre-treated with AT followed by IL-1beta stimulation two hours later. […] In a separate set of experiments, cells were cultured with IL-1beta and AT in the presence or absence of mevalonate, FPP, and GGPP to determine whether AT inhibition of ENA-78 production was dependent on HMG-CoA reductase inhibition and subsequent downstream pathways. Cell culture supernates for all experiments were stored at -20° C. until analysis, which was performed within seven days. ENA-78 concentrations were measured and normalized to total protein content in cell culture supernates using cytometric immunofluorescence as previously described. Ribonucleic acid (RNA) was isolated using a commercial kit (RNeasy mini kit, Qiagen Inc., Valencia, USA). […] RNA quality was assessed by absorbance (Nanodrop, Nanodrop Technologies, Wilmington, USA). […] Statistical differences in normalized protein concentrations and gene expression levels were determined by one way ANOVA and post-hoc Tukey analysis. […]

With interleukin-1beta [IL-1beta] the “stimulation of ENA-78 production by IL-1beta, times that of basal production” value (“stimulation of ENA-78 production” below) ([1]; 4 hours) was 29 times, the “stimulation of ENA-78 production” value ([1]; 12 hours) was 282 times and the “stimulation of ENA-78 production” value ([1]; 24 hours) was 892 times. The “stimulation of ENA-78 production” value ([1]; 48 hours) was 1322 times, the “IL-1beta stimulated ENA-78 production relative to constitutive concentrations” value ([1]; IL-1beta 2 ng/ml, FIG. 14) was ~60 fold and the “IL-1beta stimulated ENA-78 production” value ([1]; IL-1beta 2 ng/ml, no AT (constitutive 69±11 pg/mg), FIG. 14) was 4075 ± 360 pg/mg. For the same substance, the “IL-1beta-stimulated ENA-78 production” value ([1]; IL-1beta alone, mevalonate experiment, FIG. 16) was 3181 ± 590 pg/mg and the “CXCL5 expression in HUVECs” value [2] was “highly induced”.
